Assay results from patent publication US5635509A, “Piperidine derivatives useful as neurokinin antagonists” (Zeneca Limited, priority 1994, dated 1997).
pKi: −log10 of the molar value. Where a name gives a salt, the structure may show the parent alone.

Assays:
human NK2 receptor = target: T1, human NK2 receptor (Homo sapiens, UniProt P21452); assay: Neurokinin A (NKA) Receptor-binding Assay (Test A); settings: typically found
T1 construct: expressed in transfected cells; host or cells: Mouse Erythroleukemia (MEL) cells
T1 sequence (P21452 1-398): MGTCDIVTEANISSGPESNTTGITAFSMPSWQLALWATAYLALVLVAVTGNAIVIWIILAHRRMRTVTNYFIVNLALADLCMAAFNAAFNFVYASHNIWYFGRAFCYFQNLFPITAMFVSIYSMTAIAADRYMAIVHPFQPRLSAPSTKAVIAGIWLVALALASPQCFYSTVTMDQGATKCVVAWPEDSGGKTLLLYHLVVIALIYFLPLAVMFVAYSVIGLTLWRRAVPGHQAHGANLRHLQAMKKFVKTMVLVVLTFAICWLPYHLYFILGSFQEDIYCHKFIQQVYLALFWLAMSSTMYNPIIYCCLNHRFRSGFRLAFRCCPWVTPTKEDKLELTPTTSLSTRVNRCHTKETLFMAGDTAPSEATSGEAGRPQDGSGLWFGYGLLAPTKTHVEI
Description: Neurokinin A (NKA) Receptor-binding Assay (Test A)

guinea pig trachea = target: T2, guinea pig trachea (Cavia porcellus, UniProt Q64077); assay: Guinea Pig Assay (Test B), functional assay in guinea pig trachea, antagonism of NKA or [β-ala8]-NKA(4-10) contraction; assay type: cell-based; settings: -log molar KB, agonist NKA or [β-ala8]-NKA(4-10), 30 min incubation
T2 construct: The trachea are removed, trimmed of excess tissue and divided into two segments; from tissue; host or cells: guinea pig trachea rings
T2 sequence (Q64077 1-402): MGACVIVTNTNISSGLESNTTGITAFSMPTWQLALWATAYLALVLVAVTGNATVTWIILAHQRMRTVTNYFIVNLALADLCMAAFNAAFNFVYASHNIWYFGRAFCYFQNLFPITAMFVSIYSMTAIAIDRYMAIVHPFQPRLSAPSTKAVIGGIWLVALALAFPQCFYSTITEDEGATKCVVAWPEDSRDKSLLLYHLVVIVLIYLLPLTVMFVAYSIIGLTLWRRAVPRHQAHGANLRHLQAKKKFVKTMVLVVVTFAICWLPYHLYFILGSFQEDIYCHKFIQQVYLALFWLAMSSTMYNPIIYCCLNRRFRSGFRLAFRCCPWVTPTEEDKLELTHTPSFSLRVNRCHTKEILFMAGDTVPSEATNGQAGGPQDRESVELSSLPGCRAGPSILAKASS
Protocol: Guinea Pig Assay (Test B)
The chosen agonist is refered to as AG throughout the description.
Male guinea pigs are killed by a sharp blow to the back of the head. The trachea are removed, trimmed of excess tissue and divided into two segments. Each segment is suspended as a ring between stainless steel stirrups in water-jacketed (37.5° C.) tissue baths containing a physiological salt solution of the following composition (mM): NaCl, 119; KCl 4.6; CaCl2, 1.8; MgCl2, 0.5; NaH2 PO4, 1; NaHCO3, 25; glucose, 11; thiorphan, 0.001; and indomethacin, 0.005; gassed continuously with 95% O2 -%5 CO2. […] Contractile responses are measured on a Grass polygraph via Grass FT-03 force transducers.
Tissues are challenged repetitively with a single concentration of AG (10 nM) with intervening 30 min periods with washing to allow the tension to return to baseline levels. […] Percent inhibition is determined when a Compound produces a statistically significant (p<0.05) reduction of the contraction and is calculated using the second contractile response as 100%.
Potencies of selected Compounds are evaluated by calculating apparent dissociation constants (KB) for each concentration tested using the standard equation: […]
where dose ratio=antilog[(AG -log molar EC50 without Compound)--(AG -log molar EC50 with Compound)]. The KB values may be converted to the negative logarithms and expressed as -log molar KB (i.e. pKB). […]

Row | Structure (SMILES) | pKi (human NK2 receptor) | Kb (guinea pig trachea) [nM]
1 | O[C@@H](c1nccn1-c1ccccc1)[C@H](CCN1CCC(O)(c2ccccc2)CC1)c1ccc(Cl)c(Cl)c1 (racemic) [Example 2, 2-[(1RS,2RS)-2-(3,4-Dichlorophenyl)-1-hydroxy-4-(4-hydroxy-4-phenylpiperidino)butyl]-1-phenylimidazole Hydrochloride] | 7.47 | –
2 | O=C(c1c[nH]nc1-c1ccccc1)C(CCN1CCC(O)(c2ccccc2)CC1)c1ccc(Cl)c(Cl)c1 (centres unmarked) [Example 3, 4-[2-(3,4-Dichlorophenyl)-4-(4-hydroxy-4-phenylpiperidino)butyroyl]-3-phenyl-1H-pyrazole] | – | 251
